Read-outs that look alike come from different tables or passages of the source.
Key:
[1] = in vivo, cited from earlier work
rats = assay: Motor activity in an open field (plus-maze animals); format: in vivo, rat
Experimental: However, this depression of motor activity disappears following repeated administration of CDP over several days. […] To control for any non-specific effects of Mox and CDP on motor activity following their direct injection into the brain, animals were tested in the open field 30 min prior to testing in the plus (FIG. 18).
Immediately after each of the plus-maze tests reported above in Section II, animals were tested for general motor activity in an “open field.” Animals were placed into a large clean Plexiglas cage (48×32×40 cm) devoid of bedding. This open field was delineated into equal quadrants by tape on the underside of the cage. Animals were scored for motor activity by counting the number of quadrants traversed in 1 min.

[2] = system: gram negative beta-lactamase enzymes; details: cited from earlier work
male golden hamsters = assay: Resident/intruder paradigm of offensive aggression; format: in vivo, Syrian golden hamsters (Mesocricetus auratus)
Experimental: Male Syrian golden hamsters (Mesocricetus auratus) (140-150 g) obtained from Harlan Sprague-Dawley Laboratories (Indianapolis, Ind.) were housed individually in Plexiglas cages (24 cm×24 cm×20 cm), maintained on a reverse light:dark cycle (14L:10D; lights on at 19:00 hr) and provided food and water ad libitum. Animals were acclimated to the reverse light:dark cycle for at least two weeks before testing. All behavioral tests were conducted during the dark phase of the circadian cycle. All animals were acquired and cared for in accordance with the guidelines published in the Guide for the Care and Use of Laboratory Animals (National Institutes of Health Publications No. 85-23, Revised 1985).
(§1) Agonistic behavior can be classified as either offensive or defensive aggression (Blanchard and Blanchard, 1977; Adams, […]; Albert and Walsh, 1984). Offensive aggression is characterized by the aggressor initiating an attack on an opponent, while defensive aggression lacks active approach. Both types of aggression have their own unique neurobehavioral systems. The stimuli that elicit offensive and defense attack are different, as are the sequences of behaviors that accompany each agonistic response. […] Offensive aggression is easily studied using male golden hamsters tested in a resident/intruder paradigm, an established model of offensive aggression (Ferris and Potegal 1988). Placing an unfamiliar male hamster into the home cage of another male hamster elicits a well-defined sequence of agonistic behaviors from the resident that includes offensive aggression.
(§2) Hamsters are nocturnal and as such all behavioral tests were performed during the first four hrs of the dark phase under dim red illumination. The resident was scored for offensive aggression, e.g., latency to bite the intruder, the total number of bites, total contact time with the intruder and flank marking over a 10 min test period (Ferris and Potegal, 1988). Flank marking is a form of olfactory communication in which a hamsters arches its back and rubs pheromone producing flank glands against objects in the environment (Johnson, 1986).
Parametric data, i.e., latencies and contact time, were analyzed with a one-way ANOVA followed by Newman-Keuls post hoc tests. Non parametric data, i.e., number of bites and flank marks, were analyzed with Kruskal-Wallis tests followed by Mann-Whitney U tests to determine differences between groups. Two sample comparisons were analyzed with paired and unpaired t-Tests for parametric data and Wilcoxon and Mann-Whitney Tests for paired and unpaired non-parametric data, respectively.
as §1, with “by an” for “by the”, “an opponent; while,” for “an opponent, while”, “Potegal 1988) in the context of defending the home burrow.” for “Potegal 1988).”
as §2, with “Flank marking is a form of olfactory communication in which a hamsters arches its back and rubs pheromone producing flank glands against objects in the environment (Johnson, 1986).” left out

[3] = Estimated fluid and brain concentrations after dosing hamsters; format: in vivo, hamster
Experimental: The adult male hamsters used in these studies weighed around 125 g. […] CLAV has a volume of distribution approximating the extracellular fluid volume. The extracellular water content of lean body mass is approximately 22%.
To this end, animals were treated with N-acetyl-beta-aspartyl-glutamic acid (beta-NAAG), a competitive inhibitor of NAALADase (Serval et al., 1992) and tested in the seed finding model of anxiety. The study was similar to that outlined in Section I with one notable exception. […] Beta-NAAG (FW 304) was given in a dose of 3 ng in a volume of 1 μl saline ICV. The average adult hamster brain weights ca. 1.2 g of which 22% is extracellular fluid.

hamsters = assay: Motor activity in an open field (hamsters); format: in vivo, Syrian golden hamsters (Mesocricetus auratus); details: 50 μg/kg, 90 min after injection
Experimental: Six animals were tested for general motor activity in an “open field” following treatment with saline vehicle or 50 μg/kg Mox (FIG. 5). The study was counter balanced with each animal receiving each treatment. Ninety minutes after injection a single animal was placed into a large clean Plexiglas cage (48×32×40 cm) devoid of any bedding. This open field was delineated into equal quadrants by tape on the underside of the cage. Animals were scored for motor activity by counting the number of quadrants traversed in 1 min.

male hamsters = assay: Sexual activity toward a receptive female; format: in vivo, golden hamsters; details: 50 μg/kg, 90 min
Experimental: Six animals were tested over a five min observation period for sexual activity following treatment with saline vehicle or 50 μg/kg Mox (FIG. 6). The study was counter balanced with each animal receiving each treatment. Ninety min after injection, animals were scored for latency to mount and number of intromissions, i.e., bouts of copulation, toward a receptive female placed into their home cage. Female golden hamsters were ovariectomized under general anesthesia. Following recovery animals were treated with a single SC injection of […] estradiol benzoate for three consecutive days to induce sexual receptivity. On the day of testing the estrogen primed females were introduced into the home cage of the experimental males. […] Lordosis, is a stereotyped posture characterized by intense, sustained vertebral dorsiflexion.

[4] = 50 μg/kg IP, 90 min, thirteen hamsters
[5] = 140 g hamster, IP injection of 14 μg

SMILES: O=C(O)[C@H]1/C(=C/CO)O[C@@H]2CC(=O)N21 [CLAV, Clavulanic acid]
- blood-brain barrier transport / CNS penetrability [1]: readily passes the blood-brain barrier
- blood-brain barrier transport / CNS penetrability ([1]; listed as Clavulanate): good blood brain barrier transport
- open field activity (quadrants traversed in 1 min) (rats; CLAV 1.0 μg/kg IP, immediately after plus-maze): no significant differences
- binding affinity for the beta-lactamases [2]: very high
- concentration range inhibiting gram negative beta-lactamase enzymes [2]: 15 to 34 nM
- contact time with the intruder (male golden hamsters; CLAV 200 μg/kg IP, 90 min): no significant main effect
- flank marking (male golden hamsters; CLAV 200 μg/kg IP, 90 min): no significant effect
- latency to bite the intruder (male golden hamsters; CLAV 200 μg/kg IP, 90 min, trend toward significance): no significant main effect
- median number of bites (male golden hamsters; CLAV 200 μg/kg IP, 90 min, thirteen for vehicle): six
- aggressive behavior (male golden hamsters; pilot studies, 1.0 μg/kg IP): no effect
- estimated concentration in extracellular water ([3]; CLAV 1.25 ng in 27.5 ml of water (10 ng/kg, 125 g hamster)): 0.045 ng/mL
- estimated concentration in the brain ([3]; CLAV 10 ng/kg, CSF/plasma ratio 0.25): around 50 μM
- estimated concentration in extracellular water (molar) ([3]; CLAV 10 ng/kg, formula weight ca. 240): about 200 μM

SMILES: CO[C@@]1(NC(=O)C(C(=O)O)c2ccc(O)cc2)C(=O)N2C(C(=O)O)=C(CSc3nnnn3C)CO[C@@H]21 (stereo partly drawn) [Mox, 7-β-[2-carboxy-2-(4-hydroxyphenyl)acetamido]-7α-methoxy-3-[[(1-methyl-1H-tetrazol-5-yl)thio]methyl]-1-oxa-1-dethia-3-cephem-4-carboxylic acid]
- open field activity (quadrants traversed in 1 min) (hamsters): no significant difference
- blood-brain barrier transport / CNS penetrability [1]: greatest penetrability into the CNS
- blood-brain barrier transport / CNS penetrability ([1]; listed as Moxalactam): can penetrate the blood brain barrier
- general motor activity in the open field (rats; 1 mM direct injection into the brain, 30 min prior to plus-maze): no significant effect
- intromission rate (male hamsters): trend toward a decreased intromission rate
- time to mount (male hamsters; five min observation): significantly increased
- bite latency (male golden hamsters; [4]): significantly increased
- contact time (male golden hamsters; [4]): no significant change
- flank marking (male golden hamsters; [4]): no significant change
- number of bites (male golden hamsters; [4]): reduced
- contact time (male golden hamsters; 50 mg/kg IP, 90 min): significantly reduced
- flank marking (male golden hamsters; 50 mg/kg IP, 90 min): did not reach significance
- number of bites (male golden hamsters; 50 mg/kg IP, 90 min, 10 min observation): significantly reduced
- mean latency to bite (male golden hamsters; 50 mg/kg IP, 90 min after treatment, 10 min observation, vs saline): over six
- animals that never bite in the 10 min observation period (male golden hamsters; dose response, 50 μg): three of six
- number of bites (male golden hamsters; dose response, 50 μg): significant reduction
- delay of bite latency vs vehicle (male golden hamsters; dose response, 50 μg/kg): over seven
- contact time (male golden hamsters; dose response, 500 μg and 5 mg): significantly reduced
- bite latency (male golden hamsters; dose response, 500 μg and 5.0 mg): significantly increased
- flank marking (male golden hamsters; dose response, 0.5-5000 μg/kg, between groups): not significantly different
- behavioral measures of offensive aggression (male golden hamsters; dose response, doses of 5.0 μg and less): no effect
- contact time (male golden hamsters; equimolar (90 μM) IP, 90 min): no significant treatment effect
- flank marking (male golden hamsters; equimolar (90 μM) IP, 90 min): no significant treatment effect
- number of bites (male golden hamsters; equimolar (90 μM) IP, 90 min): significantly reduced
- latency to bite (male golden hamsters; equimolar (90 μM, equal to 50 μg/kg Mox) IP, 90 min): significantly delayed
- estimated CSF concentration [3, 5]: 15 ng/mL
- estimated serum concentration [3, 5]: 0.1 ng/mL
- estimated (effective minimum) concentration of moxalactam in the brain ([3]; following 50 μg/kg, listed as moxalactam): about 30 nM
